Each structure is given as a SMILES string. In brackets after ≈: the same amount, converted by molar mass.

This assay concerns Staphylococcus aureus Smith. Briefly: MIC assay, modified agar dilution (CLSI), S. aureus Smith. Format: cell-based. Particulars: Staphylococcus aureus, agar dilution, 35° C., 16-20 hr; lowest concentration that completely inhibited growth; read-out: S_aureus_Smith_WT_MIC. The gist of the method: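 Agar dilution per CLSI on Mueller Hinton agar (plus 5% horse blood for S. pneumoniae and E. faecium), compound 128 to 0.001 μg/mL in two-fold steps. Spots of ~1×10^4 CFU incubated at 35 °C for 16-20 hr before MIC scoring.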
In general terms: Agar dilution tests growth on a series of plates holding different concentrations.
For the compound `COc1ccc2ncc(F)c(CCC34CCC(NCc5ccc(N6CCOCC6)nc5)(CC3)CO4)c2n1` [Example 64, 1-(2-(3-Fluoro-6-methoxy-1,5-naphthyridin-4-yl)ethyl)-N-((6-morpholinopyridin-3-yl)methyl)-2-oxabicyclo[2.2.2]octan-4-amine], the MIC is 4 µg/mL (≈ 7.88 µM).

For `COc1ccc2ncc(F)c(CCC34CCC(NCc5cnc(N6CCOCC6)nc5)(CC3)CO4)c2n1` [Example 65, 1-(2-(3-Fluoro-6-methoxy-1,5-naphthyridin-4-yl)ethyl)-N-((2-morpholinopyrimidin-5-yl)methyl)-2-oxabicyclo[2.2.2]octan-4-amine], the MIC turned out to be 2 µg/mL (≈ 3.93 µM).

For the compound `COc1ccc2ncc(F)c(CCC34CCC(NCc5ccc6c(c5)OCCN6C)(CC3)CO4)c2n1` [Example 66, 1-(2-(3-Fluoro-6-methoxy-1,5-naphthyridin-4-yl)ethyl)-N-((4-methyl-3,4-dihydro-2H-benzo[b][1,4]oxazin-7-yl)methyl)-2-oxabicyclo[2.2.2]octan-4-amine], the MIC amounted to 0.125 µg/mL (≈ 0.254 µM).

Take `COc1ccc2ncc(F)c(CCC34CCC(NCc5cc(Cl)c6c(c5)OCCO6)(CC3)CO4)c2n1` [Example 67, N-((8-Chloro-2,3-dihydrobenzo[b][1,4]dioxin-6-yl)methyl)-1-(2-(3-fluoro-6-methoxy-1,5-naphthyridin-4-yl)ethyl)-2-oxabicyclo[2.2.2]octan-4-amine]: the MIC was 0.031 µg/mL (≈ 0.0603 µM).

For the compound `COc1ccc2ncc(F)c(CCC34CCC(NC(=O)c5ccc(C)c(F)c5)(CC3)CO4)c2n1` [Example 68, 3-Fluoro-N-(1-(2-(3-fluoro-6-methoxy-1,5-naphthyridin-4-yl)ethyl)-2-oxabicyclo[2.2.2]octan-4-yl)-4-methylbenzamide], the MIC is 0.016 µg/mL (≈ 0.0342 µM).

`COc1ccc2ncc(F)c(CCC34CCC(NCc5ccc6c(c5)OCCO6)(CC3)CO4)c2n1` [Example 69, N-((2,3-Dihydrobenzo[b][1,4]dioxin-6-yl)methyl)-1-(2-(3-fluoro-6-methoxy-1,5-naphthyridin-4-yl)ethyl)-2-oxabicyclo[2.2.2]octan-4-amine]: the MIC stood at 0.008 µg/mL (≈ 0.0167 µM).

Regarding `COc1ccc2ncc(F)c(CCC34CCC(NCC5CCCCC5)(CC3)CO4)c2n1` [Example 70, N-(Cyclohexylmethyl)-1-(2-(3-fluoro-6-methoxy-1,5-naphthyridin-4-yl)ethyl)-2-oxabicyclo[2.2.2]octan-4-amine], the MIC was determined as 2 µg/mL (≈ 4.68 µM).

With `COc1ccc2ncc(F)c(CCC34CCC(NS(=O)(=O)c5ccc(C)c(F)c5)(CC3)CO4)c2n1` [Example 71, 3-Fluoro-N-(1-(2-(3-fluoro-6-methoxy-1,5-naphthyridin-4-yl)ethyl)-2-oxabicyclo[2.2.2]octan-4-yl)-4-methylbenzenesulfonamide], the MIC came out at 1 µg/mL (≈ 1.99 µM).

Consider `COc1ccc2ncc(F)c(CCC34CCC(NCc5cc(Cl)c6c(c5)OCO6)(CC3)CO4)c2n1` [Example 72, N-((7-Chlorobenzo[d][1,3]dioxol-5-yl)methyl)-1-(2-(3-fluoro-6-methoxy-1,5-naphthyridin-4-yl)ethyl)-2-oxabicyclo[2.2.2]octan-4-amine], for which the MIC stood at 0.125 µg/mL (≈ 0.25 µM).

With `COc1ccc2ncc(F)c(CCC34CCC(NCc5cc(-c6cccs6)on5)(CC3)CO4)c2n1` [Example 73, 1-(2-(3-Fluoro-6-methoxy-1,5-naphthyridin-4-yl)ethyl)-N-((5-(thiophen-2-yl)isoxazol-3-yl)methyl)-2-oxabicyclo[2.2.2]octan-4-amine], the MIC was found to be 0.016 µg/mL (≈ 0.0323 µM).

`COc1ccc2ncc(F)c(CCC34CCC(NCc5csc(-c6ccccn6)n5)(CC3)CO4)c2n1` [Example 75, 1-(2-(3-Fluoro-6-methoxy-1,5-naphthyridin-4-yl)ethyl)-N-((2-(pyridin-2-yl)thiazol-4-yl)methyl)-2-oxabicyclo[2.2.2]octan-4-amine]: the MIC came out at 4 µg/mL (≈ 7.91 µM).

For `COc1ccc2ncc(F)c(CCC34CCC(NCc5cn(-c6ncccn6)cn5)(CC3)CO4)c2n1` [Example 76, 1-(2-(3-Fluoro-6-methoxy-1,5-naphthyridin-4-yl)ethyl)-N-((1-(pyrimidin-2-yl)-1H-imidazol-4-yl)methyl)-2-oxabicyclo[2.2.2]octan-4-amine], the MIC was determined as 0.125 µg/mL (≈ 0.255 µM).

Regarding `COc1ccc2ncc(F)c(CCC34CCC(NCc5cc6cccnc6s5)(CC3)CO4)c2n1` [Example 77, 1-(2-(3-Fluoro-6-methoxy-1,5-naphthyridin-4-yl)ethyl)-N-(thieno[2,3-b]pyridin-2-ylmethyl)-2-oxabicyclo[2.2.2]octan-4-amine], the MIC came to 0.125 µg/mL (≈ 0.261 µM).

`COc1ccc2ncc(F)c(CCC34CCC(NCc5cnc(N6CCCC6)nc5)(CC3)CO4)c2n1` [Example 78, 1-(2-(3-Fluoro-6-methoxy-1,5-naphthyridin-4-yl)ethyl)-N-((2-(pyrrolidin-1-yl)pyrimidin-5-yl)methyl)-2-oxabicyclo[2.2.2]octan-4-amine]: the MIC worked out at 0.25 µg/mL (≈ 0.508 µM).

As to `COc1ccc2ncc(F)c(CCC34CCC(NCc5cc6ccccc6n(C)c5=O)(CC3)CO4)c2n1` [Example 79, 3-((1-(2-(3-Fluoro-6-methoxy-1,5-naphthyridin-4-yl)ethyl)-2-oxabicyclo[2.2.2]octan-4-ylamino)methyl)-1-methylquinolin-2(1H)-one], the MIC amounted to 0.5 µg/mL (≈ 0.995 µM).

`COc1ccc2ncc(F)c(CCC34CCC(NCc5ccc6cc[nH]c6n5)(CC3)CO4)c2n1` [Example 80, N-((1H-Pyrrolo[2,3-b]pyridin-6-yl)methyl)-1-(2-(3-fluoro-6-methoxy-1,5-naphthyridin-4-yl)ethyl)-2-oxabicyclo[2.2.2]octan-4-amine]: the MIC was determined as 0.063 µg/mL (≈ 0.136 µM).

With `COc1ccc2ncc(F)c(CCC34CCC(NCc5cnc6[nH]ccc6c5)(CC3)CO4)c2n1` [Example 81, N-((1H-Pyrrolo[2,3-b]pyridin-5-yl)methyl)-1-(2-(3-fluoro-6-methoxy-1,5-naphthyridin-4-yl)ethyl)-2-oxabicyclo[2.2.2]octan-4-amine], the MIC is 0.5 µg/mL (≈ 1.08 µM).

On to `COc1ccc2ncc(F)c(CCC34CCC(NCc5ccc(N6CCCC6)nc5)(CC3)CO4)c2n1` [Example 82, 1-(2-(3-Fluoro-6-methoxy-1,5-naphthyridin-4-yl)ethyl)-N-((6-(pyrrolidin-1-yl)pyridin-3-yl)methyl)-2-oxabicyclo[2.2.2]octan-4-amine], for which the MIC was 0.25 µg/mL (≈ 0.509 µM).

On to `COc1ccc2ncc(F)c(CCC34CCC(NCc5ccc6ccc(=O)[nH]c6n5)(CC3)CO4)c2n1` [Example 83, 7-((1-(2-(3-Fluoro-6-methoxy-1,5-naphthyridin-4-yl)ethyl)-2-oxabicyclo[2.2.2]octan-4-ylamino)methyl)-1,8-naphthyridin-2(1H)-one], for which the MIC turned out to be 1 µg/mL (≈ 2.04 µM).

Turning to `COc1ccc2ncc(F)c(CCC34CCC(NCc5ccc(N6CCCCC6)nc5)(CC3)CO4)c2n1` [Example 84, 1-(2-(3-Fluoro-6-methoxy-1,5-naphthyridin-4-yl)ethyl)-N-((6-(piperidin-1-yl)pyridin-3-yl)methyl)-2-oxabicyclo[2.2.2]octan-4-amine], the MIC was 0.25 µg/mL (≈ 0.494 µM).

As for `COc1ccc2ncc(F)c(CCC34CCC(NCc5cnc(N(C)C)nc5)(CC3)CO4)c2n1` [Example 85, 5-((1-(2-(3-Fluoro-6-methoxy-1,5-naphthyridin-4-yl)ethyl)-2-oxabicyclo[2.2.2]octan-4-ylamino)methyl)-N,N-dimethylpyrimidin-2-amine], the MIC stood at 0.125 µg/mL (≈ 0.268 µM).

With `CCOC(=O)c1csc(CNC23CCC(CCc4c(F)cnc5ccc(OC)nc45)(CC2)OC3)n1` [Example 86, Ethyl 2-(((1-(2-(3-Fluoro-6-methoxy-1,5-naphthyridin-4-yl)ethyl)-2-oxabicyclo[2.2.2]octan-4-yl)amino)methyl)thiazole-4-carboxylate], the MIC turned out to be 16 µg/mL (≈ 32 µM).

Consider `COc1ccc2ncc(F)c(CCC34CCC(NCc5cc6c(cc5F)OCO6)(CC3)CO4)c2n1.Cl` [Example 87, 1-(2-(3-Fluoro-6-methoxy-1,5-naphthyridin-4-yl)ethyl)-N-((6-fluorobenzo[d][1,3]dioxol-5-yl)methyl)-2-oxabicyclo[2.2.2]octan-4-amine Hydrochloride], for which the MIC came to 0.063 µg/mL.

`COc1ccc2ncc(F)c(CCC34CCC(NCc5nc6c(cc5Cl)OCC(=O)N6)(CC3)CO4)c2n1.Cl` [Example 88, 7-chloro-6-(((1-(2-(3-fluoro-6-methoxy-1,5-naphthyridin-4-yl)ethyl)-2-oxabicyclo[2.2.2]octan-4-yl)amino)methyl)-2H-pyrido[3,2-b][1,4]oxazin-3(4H)-one]: the MIC is 0.008 µg/mL.

Regarding `COc1ccc2ncc(F)c(CCC34CCC(NCc5cnc6c(c5)OCCN6C)(CC3)CO4)c2n1` [Example 89, 1-(2-(3-Fluoro-6-methoxy-1,5-naphthyridin-4-yl)ethyl)-N-((4-methyl-3,4-dihydro-2H-pyrido[3,2-b][1,4]oxazin-7-yl)methyl)-2-oxabicyclo[2.2.2]octan-4-amine], the MIC was determined as 0.125 µg/mL (≈ 0.253 µM).

For `COc1ccc2ncc(F)c(CCC34CCC(NCc5ccc6c(c5)OC(F)(F)O6)(CC3)CO4)c2n1` [Example 90, N-((2,2-Difluorobenzo[d][1,3]dioxol-5-yl)methyl)-1-(2-(3-fluoro-6-methoxy-1,5-naphthyridin-4-yl)ethyl)-2-oxabicyclo[2.2.2]octan-4-amine], the MIC worked out at 0.125 µg/mL (≈ 0.249 µM).

With `COc1ccc2ncc(F)c(CCC34CCC(NCc5ccc6c(c5)n(C)c(=O)n6C)(CC3)CO4)c2n1` [Example 91, 5-((1-(2-(3-Fluoro-6-methoxy-1,5-naphthyridin-4-yl)ethyl)-2-oxabicyclo[2.2.2]octan-4-ylamino)methyl)-1,3-dimethyl-1H-benzo[d]imidazol-2(3H)-one], the MIC turned out to be 16 µg/mL (≈ 31.6 µM).

Regarding `COc1ccc2ncc(F)c(CCC34CCC(NCc5cnn(CC(F)F)c5)(CC3)CO4)c2n1` [Example 92, N-((1-(2,2-Difluoroethyl)-1H-pyrazol-4-yl)methyl)-1-(2-(3-fluoro-6-methoxy-1,5-naphthyridin-4-yl)ethyl)-2-oxabicyclo[2.2.2]octan-4-amine], the MIC was found to be 0.125 µg/mL (≈ 0.263 µM).

`COc1ccc2ncc(F)c(CCC34CCC(NCc5nn(C)cc5Cl)(CC3)CO4)c2n1` [Example 93, N-((4-Chloro-1-methyl-1H-pyrazol-3-yl)methyl)-1-(2-(3-fluoro-6-methoxy-1,5-naphthyridin-4-yl)ethyl)-2-oxabicyclo[2.2.2]octan-4-amine]: the MIC is 16 µg/mL (≈ 34.8 µM).

For the origin of these results see US20140243302A1, “BRIDGED BICYCLIC COMPOUNDS FOR THE TREATMENT OF BACTERIAL INFECTIONS” (priority 2011, published 2014).
